Source: patent US20230346889A9, “TREATMENT OF ACUTE HEART FAILURE” (AnaCardio R&D AB, priority 2019, published 2023)
“Also recorded” adds a separate entry of the source.

Tested on: patients with advanced CHF and reduced EF
Test: Trial echocardiography
Format: in vivo, human
Protocol: Echocardiography was performed by a technician blinded to treatment allocation and all echo images were analyzed and interpreted by one independent investigator blinded to treatment allocation and clinical history of the patients. Two dimensional images were recorded with a Vivid 7/E9 ultrasound system (GE, Horten, Norway) with a 3 MHz Doppler transducer. A detailed echocardiographic examination including dimensions, cardiac systolic and diastolic function, valve performance and systolic pulmonary artery pressure was performed at baseline (Table 5). A shorter protocol including left ventricular dimensions and function, stroke volume and cardiac output was used for comparison of changes over time (Table 9 and 10). Left ventricular end-systolic and end-diastolic volumes and left ventricular ejection fraction (LVEF) were measured using the modified biplane Simpson's method. LVEF was also measured using the Teichholz method. Because of missing data on LVEF by the Simpson's method due to low image quality, changes in LVEF over time was calculated using the Teichholz method. Left atrial volumes were calculated using the biplane area length method from the apical four- and two-chamber views and indexed to the body surface area. The E/e′ ratio was calculated using the peak E-wave velocity of the mitral inflow and the averaged of septal and lateral tissue Doppler recordings. Tricuspid annular peak systolic excursion (TAPSE) was assessed with M-mode echocardiography. Speckle tracking was used for left ventricular longitudinal strain. […] Stroke volume was derived from the left ventricular outflow tract (LVOT) area and the LVOT […] time integral (VTI) (LVOT area×LVOT VTI). Cardiac output was calculated as the echo derived stroke volume×heart rate.

CCCCCCCC(=O)OC[C@H](NC(=O)[C@H](CO)NC(=O)CN)C(=O)N[C@@H](Cc1ccccc1)C(=O)N[C@@H](CC(C)C)C(=O)N[C@@H](CO)C(=O)N1CCC[C@H]1C(=O)N[C@@H](CCC(=O)O)C(=O)N[C@@H](Cc1cnc[nH]1)C(=O)N[C@@H](CCC(N)=O)C(=O)N[C@@H](CCCNC(=N)N)C(=O)N[C@H](C(=O)N[C@@H](CCC(N)=O)C(=O)N[C@@H](CCC(N)=O)C(=O)N[C@@H](CCCNC(=N)N)C(=O)N[C@@H](CCCCN)C(=O)N[C@@H](CCC(=O)O)C(=O)N[C@@H](CO)C(=O)N[C@@H](CCCCN)C(=O)N[C@@H](CCCCN)C(=O)N1CCC[C@H]1C(=O)N1CCC[C@H]1C(=O)N[C@@H](C)C(=O)N[C@@H](CCCCN)C(=O)N[C@@H](CC(C)C)C(=O)N[C@@H](CCC(N)=O)C(=O)N1CCC[C@H]1C(=O)N[C@@H](CCCNC(=N)N)C(=O)O)C(C)C [Ghrelin]
CO (echocardiography) (2-5 days FU): 3.8 ± 1.3 L/min
E/e′ (2-5 days FU): 16.2 ± 8.3 ratio
LVEDD (2-5 days FU): 66 ± 10 mm
LVEF (2-5 days FU): 28.5 ± 11.9%
LVESD (2-5 days FU): 57 ± 11 mm
SV (echocardiography) (2-5 days FU): 52.5 ± 20.6 mL
TAPSE (2-5 days FU): 11.8 ± 6.0 mm
Strain (2-5 days FU, n = 12): 10.4 ± 6.4%
CO (echocardiography) (+30 min): 4.1 ± 1.5 L/min
E/e′ (+30 min): 15.3 ± 6.6 ratio
LVEDD (+30 min): 65 ± 9 mm
LVEF (+30 min): 30.1 ± 11.2%
LVESD (+30 min): 56 ± 11 mm
SV (echocardiography) (+30 min): 62.2 ± 23.8 mL
TAPSE (+30 min): 14.1 ± 5.4 mm
Strain (+30 min, n = 13): 12.46 ± 4.1%
CO (echocardiography) (BL): 3.8 ± 1.5 L/min
E/e′ (BL): 15.2 ± 5.5 ratio
LVEDD (BL): 66 ± 9 mm
LVESD (BL): 58 ± 9 mm
SV (echocardiography) (BL): 54.3 ± 18.4 mL
TAPSE (BL): 13.0 ± 5.9 mm
LVEF (BL, Teichholz method): 27.4 ± 7.4%
Strain (BL, n = 13 in ghrelin group): 11.9 ± 6.3%
CO (echocardiography) (Baseline (Table 10)): 3.8 ± 1.5 L/min
E/e′ (Baseline (Table 10)): 15.2 ± 5.5 ratio
LVEDD (Baseline (Table 10)): 66 ± 9 mm
LVEF (Baseline (Table 10)): 27.4 ± 7.4%
LVESD (Baseline (Table 10)): 58 ± 9 mm
SV (echocardiography) (Baseline (Table 10)): 54.3 ± 18.4 mL
TAPSE (Baseline (Table 10)): 13.0 ± 5.9 mm
Strain (Baseline (Table 10), n = 12 in ghrelin group): 11.9 ± 6.3%
CO (echocardiography) (INF + 60 min): 3.9 ± 1.3 L/min
E/e′ (INF + 60 min): 17.1 ± 9.5 ratio
LVEDD (INF + 60 min): 67 ± 9 mm
LVEF (INF + 60 min): 29.1 ± 11.5%
LVESD (INF + 60 min): 58 ± 11 mm
SV (echocardiography) (INF + 60 min): 56.3 ± 21.4 mL
TAPSE (INF + 60 min): 13.1 ± 4.8 mm
Strain (INF + 60 min, n = 13): 13.4 ± 4.6%
CO (echocardiography) (INF + 120 min): 3.9 ± 1.4 L/min
E/e′ (INF + 120 min): 16.3 ± 8.9 ratio
LVEDD (INF + 120 min): 67 ± 10 mm
LVEF (INF + 120 min): 29.8 ± 11.4%
LVESD (INF + 120 min): 57 ± 11 mm
SV (echocardiography) (INF + 120 min): 59.5 ± 25.5 mL
TAPSE (INF + 120 min): 14.2 ± 5.4 mm
Strain (INF + 120 min, n = 13): 13.2 ± 5.8%
change in CO by echocardiography (in vivo): trends toward a difference in change of CO in favor of ghrelin; also recorded: a nominal interaction suggesting improvement with ghrelin but no significant differences in change
change in E/e′ (in vivo): no differences in change; also recorded: no interaction with or differences in change
change in EF (in vivo): a trend toward a greater absolute (p=0.12) and percent change (p=0.14) in EF with ghrelin; also recorded: a nominal interaction suggesting improvement in EF with ghrelin
change in LVEDD (in vivo): no change or differences in change
change in LVESD (in vivo): no change or differences in change
change in SV by echocardiography (in vivo): a significant difference in change of SV in favor of ghrelin; also recorded: a significant interaction suggesting improvement with ghrelin
change in TAPSE (in vivo): a trend toward a greater difference in change; also recorded: a trend toward an interaction suggesting improvement in TAPSE
segmental strain by echocardiography (in vivo): numerical differences in favor of ghrelin but no statistical significance
